Legend:
[1] = system: RSK1-4; settings: G. P. Sapkota et al., Biochem J., 401, 29-38 (2007); cited from earlier work
[2] = biological target: T1, His-tagged full length RSK1 (RPS6KA1) (Homo sapiens, UniProt Q15418); assay: RSK1 Omnia Assay for compound IC50 determination; assay type: biochemical; settings: ATP 15 μM, n=2, read-out: Mean RSK1 Biochem IC50
T1 construct: His-tagged full length RSK1 (RPS6KA1, Millipore 14-509); His; purchased Millipore 14-509
Experimental: RSK1 & RSK2 Omnia Assay Protocol for Compound IC50 Determination
The Omnia Assay (Invitrogen) has been optimized for His-tagged full length RSK1 (RPS6KA1, Millipore 14-509) and for His-tagged full-length RSK2 (RPS6KA3, Invitrogen PV3323). In this assay system, Omnia ST Peptide 6 (Invitrogen KNZ1061) functions as a substrate for RSK1 or RSK2. Phosphorylation of this SOX-containing peptide results in an increase in fluorescence at 485 nm upon excitation at 360 nm.
Assays are carried out in 384-well OptiPlates (Perkin Elmer 6007290) in a total volume of 20 μL containing RSK1 ([…]) or RSK2 ([…]), Omnia ST Peptide 6 (5 μM), ATP (15 μM, Km=16.3 μM), and test compound (variable) in RSK assay buffer (50 mM HEPES, pH 7.5, 10 mM MgCl2, 0.01% Tween-20, 1% glycerol, 1 mM DTT, 1 mM EGTA, 0.01% BSA) with 1% DMSO.
IC50s for test compounds are typically determined using an 11-point three-fold serial dilution with a final assay concentration ranging either from 170 μM to […] or from 17 μM to […]. All compound concentrations are assayed in duplicate. Initial compound dilutions are prepared at 100× concentration in 100% DMSO from a 10 mM stock solution. Compounds are further diluted 1:25 in assay buffer resulting in a 4× concentrated solution.
To run the assay 5 μL of the above 4× concentrated compound solution (or 4% DMSO for positive controls) is added to the assay plate followed by 5 μL of a solution containing peptide (20 μM) and ATP (60 μM) in assay buffer. The reaction is initiated by the addition of 10 μL of RSK1 ([…]) or RSK2 ([…]) in assay buffer, or assay buffer alone for negative controls. The increase in fluorescence due to peptide phosphorylation is monitored continuously as a function of time using a Spectramax M5 plate reader (Molecular Devices) equipped with SoftMax Pro software.
The slopes from the linear portion of progress curves are used to determine IC50 values by non-linear curve-fitting to a four-parameter equation using GraphPad Prism (GraphPad Software, Inc.) or XLFit (IDBS). IC50's are determined in duplicate (n=2) and Ki values are calculated from IC50 values using the Cheng-Prusoff equation assuming a competitive mode of inhibition.

[3] = biological target: T2, His-tagged full-length RSK2 (RPS6KA3) (Homo sapiens, UniProt P51812); assay: RSK2 Omnia Assay for compound IC50 determination; assay type: biochemical; settings: ATP 15 μM, n=2, read-out: Mean RSK2 Biochem IC50
T2 construct: His-tagged full-length RSK2 (RPS6KA3, Invitrogen PV3323); His; purchased Invitrogen PV3323
Summary of the method: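 Initial-rate slopes from continuous kinetic reads were fitted to a four-parameter equation for IC50 (n=2). Ki was then derived by Cheng-Prusoff assuming ATP-competitive inhibition. Reactions contained 15 μM ATP (Km 16.3 μM), 5 μM Omnia ST Peptide 6, and […] in 50 mM HEPES pH 7.5, 10 mM MgCl2, 1 mM DTT, 1% DMSO. Compounds spanned 11 threefold steps, […] final.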

T2 sequence (P51812 whole entry): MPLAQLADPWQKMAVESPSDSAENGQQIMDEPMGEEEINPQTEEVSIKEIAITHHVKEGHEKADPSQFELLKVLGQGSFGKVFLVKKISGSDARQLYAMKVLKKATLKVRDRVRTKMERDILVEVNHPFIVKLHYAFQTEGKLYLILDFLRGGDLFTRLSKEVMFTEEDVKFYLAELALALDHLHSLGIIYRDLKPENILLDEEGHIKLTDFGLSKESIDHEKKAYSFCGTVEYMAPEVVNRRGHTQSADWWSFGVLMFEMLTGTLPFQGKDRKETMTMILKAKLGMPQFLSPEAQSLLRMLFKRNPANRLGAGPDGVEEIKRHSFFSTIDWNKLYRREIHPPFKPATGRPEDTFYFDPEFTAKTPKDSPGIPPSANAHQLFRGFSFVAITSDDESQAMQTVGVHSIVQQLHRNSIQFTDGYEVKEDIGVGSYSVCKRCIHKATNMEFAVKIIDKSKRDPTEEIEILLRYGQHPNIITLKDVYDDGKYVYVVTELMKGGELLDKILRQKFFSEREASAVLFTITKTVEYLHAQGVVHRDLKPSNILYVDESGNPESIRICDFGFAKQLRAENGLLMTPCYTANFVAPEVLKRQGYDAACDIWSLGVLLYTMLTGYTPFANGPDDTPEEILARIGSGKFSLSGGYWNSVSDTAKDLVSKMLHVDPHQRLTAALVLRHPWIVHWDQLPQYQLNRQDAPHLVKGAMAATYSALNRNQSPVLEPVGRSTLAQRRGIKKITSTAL
T1 sequence (Q15418 whole entry): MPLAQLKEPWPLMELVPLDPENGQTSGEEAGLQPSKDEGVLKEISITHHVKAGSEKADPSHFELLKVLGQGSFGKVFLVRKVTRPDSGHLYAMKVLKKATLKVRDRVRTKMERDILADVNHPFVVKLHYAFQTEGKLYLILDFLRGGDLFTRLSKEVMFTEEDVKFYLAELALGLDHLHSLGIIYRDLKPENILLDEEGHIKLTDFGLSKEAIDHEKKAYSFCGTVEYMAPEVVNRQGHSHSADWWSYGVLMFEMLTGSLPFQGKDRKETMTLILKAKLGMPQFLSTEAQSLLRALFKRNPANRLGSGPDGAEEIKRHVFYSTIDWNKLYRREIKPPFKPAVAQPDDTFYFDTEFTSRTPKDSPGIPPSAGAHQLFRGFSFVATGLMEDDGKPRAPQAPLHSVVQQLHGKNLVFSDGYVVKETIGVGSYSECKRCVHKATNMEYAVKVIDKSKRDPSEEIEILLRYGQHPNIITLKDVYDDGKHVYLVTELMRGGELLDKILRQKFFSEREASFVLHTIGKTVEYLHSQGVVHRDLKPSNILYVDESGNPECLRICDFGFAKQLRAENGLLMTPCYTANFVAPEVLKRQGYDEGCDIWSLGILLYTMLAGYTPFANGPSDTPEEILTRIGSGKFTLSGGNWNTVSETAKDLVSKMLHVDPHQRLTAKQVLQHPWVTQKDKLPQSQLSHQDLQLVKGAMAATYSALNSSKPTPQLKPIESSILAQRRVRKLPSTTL

SMILES	IC50 [2] [nM]	IC50 [3] [nM]	inhibitor of RSK1-4 [1]
CC(C)CCN1c2nc(Nc3cc(F)c(O)c(F)c3)ncc2N(C)C(=O)C1C (stereo not drawn) [BI-D1870]	–	–	potent inhibitor
C[C@@H]1C(=O)N(c2ccccc2)c2cnc(Nc3ccc4[nH]ncc4c3)nc2N1C1CCCC1 [Example 66, (7R)-8-cyclopentyl-2-(1H-indazol-5-ylamino)-7-methyl-5-phenyl-7,8-dihydropteridin-6(5H)-one]	≤ 100	≤ 100	–

Second part, led by results:

IC50 [2] [nM]	IC50 [3] [nM]	SMILES	inhibitor of RSK1-4 [1]
≤ 100	≤ 100	C[C@@H]1C(=O)N(c2cccnc2)c2cnc(Nc3ccc4[nH]ncc4c3)nc2N1C1CCCCC1 [Example 23, (7R)-8-cyclohexyl-2-(1H-indazol-5-ylamino)-7-methyl-5-(pyridin-3-yl)-7,8-dihydropteridin-6(5H)-one]	–
≤ 100	≤ 100	C[C@@H]1C(=O)N(c2cccc(C#N)c2)c2cnc(Nc3ccc4[nH]ncc4c3)nc2N1C1CCCCC1 [Example 29, 3-[(7R)-8-cyclohexyl-2-(1H-indazol-5-ylamino)-7-methyl-6-oxo-7,8-dihydropteridin-5(6H)-yl]benzonitrile]	–
≤ 100	≤ 100	C[C@@H]1C(=O)N(c2ccsc2)c2cnc(Nc3ccc4[nH]ncc4c3)nc2N1C1CCCCC1 [Example 57, (7R)-8-cyclohexyl-2-(1H-indazol-5-ylamino)-7-methyl-5-(thiophen-3-yl)-7,8-dihydropteridin-6(5H)-one]	–

— patent US9351974B2, “Substituted pteridinones for the treatment of cancer” (OSI Pharmaceuticals, LLC, priority 2011, dated 2016)
